This is an account of results in patent US7648997B2, “Hydroxylamine substituted imidazoquinolines” (Coley Pharmaceutical Group, Inc., priority 2003, dated 2010).

`CCCc1nc2c(N)nc3ccccc3c2n1CCCON` [Example 1, 1-[3-(Aminooxy)propyl]-2-propyl-1H-imidazo[4,5-c]quinolin-4-amine] yielded a melting point of 145 to 148 °C.

In the case of `CCCc1nc2c(N)nc3ccccc3c2n1CCCONC(=O)C1CC1` [Example 2, N-[3-(4-Amino-2-propyl-1H-imidazo[4,5-c]quinolin-1-yl)propoxy]cyclopropanecarboxamide], the melting point fell in the range of 103 to 105 °C.

Turning to `CCCCc1nc2c(N)nc3ccccc3c2n1CCCCONC(C)C` [Example 72, 2-Butyl-1-{4-[(isopropylamino)oxy]butyl}-1H-imidazo[4,5-c]quinolin-4-amine], the melting point is 115 to 117 °C.

As to `CCCc1nc2c(N)nc(C)c(C)c2n1CCCONC(C)c1ccccc1` (centres unmarked) [Example 129, 6,7-Dimethyl-1-(3-{[(1-phenylethyl)amino]oxy}propyl)-2-propyl-1H-imidazo[4,5-c]pyridin-4-amine], the melting point fell in the range of 125 to 127 °C.

`CCCc1nc2c(N)nc3ccccc3c2n1CCCONC(C)C` [Example 130, 1-{3-[(Isopropylamino)oxy]propyl}-2-propyl-1H-imidazo[4,5-c]quinolin-4-amine] had a melting point of 147 to 150 °C.

`CCCc1nc2c(N)nc3cc(Br)ccc3c2n1CCCONC(=O)C(C)C` [Example 137, N-[3-(4-Amino-7-bromo-2-propyl-1H-imidazo[4,5-c]quinolin-1-yl)propoxy]-2-methylpropanamide] yielded a melting point of 176 to 178 °C.

In turn, `CCCc1nc2c(N)nc3cc(-c4ccccc4)ccc3c2n1CCCONC(=O)C(C)C` [Example 138, N-[3-(4-Amino-7-phenyl-2-propyl-1H-imidazo[4,5-c]quinolin-1-yl)propoxy]-2-methylpropanamide] yielded a melting point of 169 to 171 °C.

Regarding `CCOCc1nc2c(N)nc3cc(-c4ccccc4)cnc3c2n1CCCONC(C)C` [Example 139, 2-(Ethoxymethyl)-1-{3-[(isopropylamino)oxy]propyl}-7-phenyl-1H-imidazo[4,5-c][1,5]naphthyridin-4-amine], the melting point was in the range of 142 to 144 °C.

In general, melting point refers to the temperature of the solid-liquid transition.
